# Patent US5877183A, “Treatment of lipid and glucose metabolism disorders with dopamine and serotonin agonists” (Ergo Research Corporation, priority 1997, dated 1999)
# What was measured:
# [1] = cited from earlier work
# [2] = two-week treatment of C57BL/6 ob/ob mice (body weight, fat and lean body mass, food consumption, blood glucose, serum free fatty acids); type: in vivo, C57BL/6 ob/ob mice (lacking a functional leptin protein); details: two weeks
# Experimental: Different groups (8 mice per group) of 4-8 week old C57BL/6 ob/ob mice (lacking a functional leptin protein) were treated with:
# 1) vehicle at 1 and 11 hours after light onset (HALO);
# 2) Buspirone ("Busp"; a 5HT1A agonist) (3 mg/kg) at 11 HALO;
# 3) DOI (a 5HT2 agonist) (8 mg/kg) at 11 HALO;
# 4) RU24969 ("RU") (5HT1B agonist) (3 mg/kg) at 11 HALO;
# 5) bromocriptine ("BC") (12 mg/kg BW) at 1 HALO;
# 6) BC (12 mg/kg) at 1 HALO plus Buspirone (3 mg/kg) at 11 HALO;
# 7) BC (12 mg/kg) at 1 HALO plus DOI (8 mg/kg) at 11 HALO;
# 8) BC (12 mg/kg) at 1 HALO plus RU (3 mg/kg) at 11 HALO;
# 9) SKF38393 ("SKF") (D1 agonist) (20mg/kg BW) at 1 HALO; and
# 10) SKF(20 mg/kg) at 1 HALO plus RU (3 mg/kg) at 11 HALO for two weeks. Animals were held on 12-hour daily photoperiods and allowed to feed ad libitum. Food consumption was monitored daily for 3 days before the initiation of treatment throughout the 14-day treatment period. Animals were sacrificed between 1 and 3 HALO on the day following the final treatment and plasma was collected for the analyses of insulin, glucose, and lipids while the carcasses were solubilized in ethanolic KOH and analyzed for protein and lipid content. Blood glucose was measured with an Accu-Chek Advantage glucose meter (Boehringer). Serum insulin was measured with a radioimmunoassay kit (Linco Research) using rat insulin standards. Total triglycerides and free fatty acids were measured with kits from Sigma Diagnostics and Wako Chemicals, respectively. Body weight gain or loss as a result of treatment is depicted in FIG. 1. Fat body mass is depicted in FIG. 2.
# [3] = timed administration; cited from earlier work
# [4] = in vivo; cited from earlier work
# [5] = cited from earlier work; remark: listed apart in the source
structure (smiles),measurement,setting,value
"CC(C)C[C@H]1C(=O)N2CCC[C@H]2[C@]2(O)O[C@](NC(=O)[C@@H]3C=C4c5cccc6[nH]c(Br)c(c56)C[C@H]4N(C)C3)(C(C)C)C(=O)N12 [Bromocriptine, 2-bromo-alpha-ergocriptine]",locomotor stimulation and stereotyped behavior responses,[1]; after depletion of endogenous dopamine,blocked by depletion of endogenous dopamine
same,responsiveness in dopamine depleted animals given a D1 dopamine receptor agonist,[1]; dopamine depleted animals plus D1 agonist,restored
same,body fat stores / fat body mass (effect in words),[2],ineffective
same,body weight gain (effect in words),[2],ineffective
same,food intake / food consumption (effect in words),[2],ineffective
same,body fat stores (effect in words),[3],reduce body fat stores
same,food consumption (effect in words),[3],without a concomitant reduction in food consumption
same,"hyperinsulinemia, hyperlipidemia, and glucose intolerance (effect in words)",[3],"reduce hyperinsulinemia, hyperlipidemia, and glucose intolerance"
O=C1CC2(CCCC2)CC(=O)N1CCCCN1CCN(c2ncccn2)CC1 [Buspirone],body fat stores / fat body mass (effect in words),[2],ineffective
same,body weight gain (effect in words),[2],ineffective
same,food intake / food consumption (effect in words),[2],ineffective
COc1cc(CC(C)N)c(OC)cc1I (stereo not drawn) [DOI],body fat stores / fat body mass (effect in words),[2],ineffective
same,body weight gain (effect in words),[2],ineffective
same,food intake / food consumption (effect in words),[2],ineffective
COc1ccc2[nH]cc(C3=CCNCC3)c2c1 [RU],body weight gain (effect in words),[2],significant decrease
same,food intake / food consumption (effect in words),[2],significant decrease
Oc1cc2c(cc1O)C(c1ccccc1)CNCC2 (stereo not drawn) [SKF],body weight gain (effect in words),[2],significant decrease
same,food intake / food consumption (effect in words),[2],significant decrease
CCOC(=O)C(C)(C)Oc1ccc(Cl)cc1 [clofibrate],side effects,[4],"nephrotic syndromes, myalgia, nausea, and abdominal pain"
CC[C@H](C)C(=O)O[C@H]1C[C@@H](C)C=C2C=C[C@H](C)[C@H](CC[C@@H]3C[C@@H](O)CC(=O)O3)[C@H]21 [lovastatin],total cholesterol (effect in words),[5]; in vivo,reduces total cholesterol
same,increase in HDL concentrations,[5]; lovastatin (MEVACOR),5-10%
